Data published in patent publication US20230218573A1, “INDOLE COMPOUNDS FOR THE TREATMENT OF NEURODEGENERATIVE DISEASES” (GALYAN BIO, INC., priority 2020, published 2023).
pKd: −log10 of the molar value. Entries after “also recorded” stand apart in the source; their conditions may differ.

Columns and labels:
[1] = Pharmacokinetics, plasma and brain concentration by UHPLC-TOF; assay type: in vivo, mice
Protocol: Compound 22 is an analog of Compound 7. […] Compound 22 pharmacokinetic properties was measured in three male CD1 mice at several timepoints. Compound 22 was dissolved in 10% DMSO, 10%, cremaphor, and 80% saline. The tested dose was 33.3 mg/kg body weight. Brain tissue was homogenized and protein precipitated with acetonitrile. […] As such, Compound 22 was selected for testing in an animal model of HD the R6/2 model. As described below, Compound 22 and its analogs were further tested for their effects on striatal cell viability and effects of mHTT levels.

STHdh 7/7 striatal cells = experiment: Cell viability of heat shocked STHdh 7/7 striatal cells; assay type: cell-based, mouse; conditions: Mus musculus, 48 hours treatment, read-out: Cell Viability striatal cells 3h heat shocked
Protocol: RESULTS - Table 7b summarizes the effect of the compounds on cell viability. STHdh 7/7 were heat shocked for 3 hours and treated for 48 hours with small molecule compounds. Table 2 lists the cell viability in striatal cells after 48 hours.
Effect of Compound 22 on Cell Viability of Wildtype Striatal Neurons - STHdh 7/7 cells are striatal cells that express wildtype huntingtin. These cells were cultured in the same conditions as described above for STHdh 111/111. The neurons were first heat shocked for 3 hours at 41° C. as described above. After 48 hours of treatment with the small molecule Compounds, cell viability was determined using the method described above. The “buffer” control is represents cells treated with a buffer only, without any compounds added. Some of the compounds show higher cell viability in comparison to control heat shocked STHdh 7/7 neurons with buffer and no treatment (FIG. 9).

[2] = Microsomal stability in mice; assay type: in vitro ADME
[3] = Body weight of R6/2 mice under chronic administration; assay type: in vivo
Protocol: (§1) Methods - Total of 20 female and male R6/2 mice and 10 female and male wild-type littermate control mice (WT) were used in the study. The mice were genotyped and the R6/2 mice were divided into different treatment groups based on their litter and baseline body weight. The treatment with Vehicle or Compound 22(33 mg/kg; 5 ml/kg, i.p. QD) was started at 4 weeks of age after the baseline behavioral tests (FIG. 10). Body weights were measured at 3 weeks of age and twice a week until the end of the study.
The experimental groups were: • Group 1) 10 wild-type mice (mixed gender) treated with Vehicle (5 ml/kg, i.p., QD) starting at 4 weeks of age • Group 2) 10 R6/2 mice (mixed gender) treated with Vehicle (5 ml/kg, i.p., QD) starting at 4 weeks of age • Group 3) 10 R6/2 mice (mixed gender) treated with Compound 22 (33 mg/kg; 5 ml/kg, i.p. QD) starting at 4 weeks of age
44.3.7 - Compound Delivery and Dosing - Treatment with Compound 22 (33 mg/kg; 5 ml/kg, i.p. QD) or Vehicle was started at age week 4 and continued until the 12 weeks of age. The test articles were handled and stored and the dose formulations were prepared according to detailed instructions provided by the Sponsor.
44.3.8 - Body Weight - Body weight was measured starting at 3 weeks of age before treatment onset and two times per week on the same day (on Monday and Friday) until the end of the study.

[4] = tested on: R6/2 mice of Huntington's disease; experiment: Grip strength in R6/2 mice; assay type: in vivo; conditions: 33 mg/kg i.p. QD; 4-12 weeks of age
Protocol: as §1
The experimental groups were: • Group 1) 10 wild-type mice (mixed gender) treated with Vehicle (5 ml/kg, i.p., QD) starting at 4 weeks of age • Group 2) 10 R6/2 mice (mixed gender) treated with Vehicle (5 ml/kg, i.p., QD) starting at 4 weeks of age • Group 3) 10 R6/2 mice (mixed gender) treated with Compound 22 (33 mg/kg; 5 ml/kg, i.p. QD) starting at 4 weeks of age […]
Mice were taken to the experimental room and, one at a time, were placed on the grip strength apparatus (San Diego Instruments, San Diego, USA) in such a way that the animal grabbed a small mesh grip with its forepaws. […] Five scores were recorded per animal in consecutive sequence, and the average of three best scores for each animal was used for the results. […]

Exon1 Q46 protein = biological target: T1, Exon1 Q46 protein (Homo sapiens, UniProt P42858, INS38QQQQQQQQQQQQQQQQQQQQQQQQQ); experiment: Kd to Exon1 Q46 protein; assay type: binding
T1 construct: fused on or other part: E. coli thioredoxin (TRX) at the N-terminus as a solubility handle; linker […]; C-terminal GSG-His6 tag

Slc32a1 = experiment: Nanostring gene expression in STHdh 111/111 cells: Slc32a1; assay type: cell-based, mouse; conditions: treated STHdh 111/111 (Q111-10), 48 h; in comparison to untreated STHdh 111/111
Protocol: (§2) Gene expression of certain transcripts of interest were measured using Nanostring Technology. […] Some STHdh 7/7 and STHdh 111/111 cell samples were not heat shocked and some wells were treated with Compound 22 at the indicated concentration on for 48 hours (Table 12). Some STHdh 7/7 and STHdh 111/111 cell samples were heat shocked for 3 hours some wells were treated with Compound 22 at the indicated concentration on for 48 hours (Table 13). Cells are washed with PBS, trypsinised, and gathered in a 15 ml falcon tube. After a short spin down for 3 minutes at 300 g, the cell pellet was washed with PBS once, before it was frozen down in liquid nitrogen. RNA was extracted with a standard protocol. The nCounter® Mouse Neuropathology Panel (Nanostring, Seattle) was used for gene expression analysis according to the manufacturer’s protocols.

Olig2 = experiment: Nanostring gene expression in STHdh 111/111 cells: Olig2; assay type: cell-based, mouse; conditions: treated STHdh 111/111 (Q111-10), 48 h; in comparison to untreated STHdh 111/111
Protocol: as §2

NGFR = experiment: Nanostring gene expression in STHdh 111/111 cells: NGFR; assay type: cell-based, mouse; conditions: treated STHdh 111/111 (Q111-10), 48 h; in comparison to untreated STHdh 111/111
Protocol: as §2

KCNA1 = experiment: Nanostring gene expression in STHdh 111/111 cells: Kcna; assay type: cell-based, mouse; conditions: treated STHdh 111/111 (Q111-10), 48 h; in comparison to untreated STHdh 111/111
Protocol: as §2

[5] = Microsomal stability in humans; assay type: in vitro ADME; conditions: humans versus mice
mHTT = mHTT (Mus musculus, UniProt P42859, DEL28-30/G47A/INS49LLPQPQPP/INS60VA/L56P/P40L); experiment: Diffuse mHTT levels in heat shocked STHdh 111/111 striatal cells by immunocytochemistry; conditions: STHdh 111/111; in comparison to untreated cells
Protocol: Pre-Treatment of striatal cell line - First the medium was removed and new DMEM (DMEM, high glucose, HEPES, no phenol red) medium, supplemented with 10% fetal bovine serum (FBS), 1% Penicillin-Streptomycin, containing 10 µM compound was added. The cells were incubated at 33° C. for 24 hours.
Heat shock - Cells were heat shocked for 3 hours at 41° C.
Treatment - Medium was removed and new DMEM (DMEM, high glucose, HEPES, no phenol red) medium, supplemented with 1% fetal bovine serum (FBS), 1% Penicillin-Streptomycin, containing 10 µM compound was added. The cells were incubated at 33° C. for 48 hours.
Staining - Cells were permeabilized with 0.3% Triton X-100 in 4° C. PBS (pH 7.4 from ThermoFisher) for 10 minutes. Then the cells were washed two times with 4° C. PBS. Subsequently, cells are blocked with 3% NGS (normal goat serum from Thermo Fisher) in 4° C. PBS for 1 hour. Cells were incubated with primary antibodies in blocking buffer (PBS, 3% NGS, 0.02% NaN3) over night at 4° C. Primary antibodies were mouse antipolyglutamine monoclonal antibody 3B5H10 (Sigma-Aldrich) at 1:250 dilution and Guinea Pig anti-MAP2 polyclonal antibody (Synaptic Systems) at 1:500 dilution. 3B5H10 binds to diffuse mHTT. Diffuse mHTT is a monomeric and small oligomeric mHTT.
Cells were washed 2 times with 4° C. PBS, and then incubated with secondary antibodies at 1:2000 dilution in blocking buffer for 1 hour at room temperature. […] Cells were washed 2 times with 4° C. PBS, and then the nuclei were counterstain with DAPI (ThermoFisher) for 10 min at room temperature in the dark. Cells were washed 2 times with 4° C. PBS, and then 4° C. PBS was added to cells and then images were acquired.
Fluorescence Imaging - Imaging sessions were performed on a confocal microscope system (Carl Zeiss Microscopy) equipped with a dual spinning disk unit (Yokogawa). All components of the imaging system were controlled via the ZEN 2 software suite (Carl Zeiss Microscopy). The laser lines used were 405 nm, 488 nm and 639 nm to excite DAPI or the respective fluorophores. […] Nested t test was performed to calculate the significance amongst repeated measurements using GraphPad Prism software.
ST HDH Q7/7 (CH00097, Coriell Institute) striatal derived cell line from a knock in transgenic mouse containing HTT loci with a humanized Exon 1 containing 7 polyglutamine repeats.
EC 50 value was determined with non-linear regression.

T1 sequence (P42858 whole entry, looked up, stated change not applied, the tested form may be a part): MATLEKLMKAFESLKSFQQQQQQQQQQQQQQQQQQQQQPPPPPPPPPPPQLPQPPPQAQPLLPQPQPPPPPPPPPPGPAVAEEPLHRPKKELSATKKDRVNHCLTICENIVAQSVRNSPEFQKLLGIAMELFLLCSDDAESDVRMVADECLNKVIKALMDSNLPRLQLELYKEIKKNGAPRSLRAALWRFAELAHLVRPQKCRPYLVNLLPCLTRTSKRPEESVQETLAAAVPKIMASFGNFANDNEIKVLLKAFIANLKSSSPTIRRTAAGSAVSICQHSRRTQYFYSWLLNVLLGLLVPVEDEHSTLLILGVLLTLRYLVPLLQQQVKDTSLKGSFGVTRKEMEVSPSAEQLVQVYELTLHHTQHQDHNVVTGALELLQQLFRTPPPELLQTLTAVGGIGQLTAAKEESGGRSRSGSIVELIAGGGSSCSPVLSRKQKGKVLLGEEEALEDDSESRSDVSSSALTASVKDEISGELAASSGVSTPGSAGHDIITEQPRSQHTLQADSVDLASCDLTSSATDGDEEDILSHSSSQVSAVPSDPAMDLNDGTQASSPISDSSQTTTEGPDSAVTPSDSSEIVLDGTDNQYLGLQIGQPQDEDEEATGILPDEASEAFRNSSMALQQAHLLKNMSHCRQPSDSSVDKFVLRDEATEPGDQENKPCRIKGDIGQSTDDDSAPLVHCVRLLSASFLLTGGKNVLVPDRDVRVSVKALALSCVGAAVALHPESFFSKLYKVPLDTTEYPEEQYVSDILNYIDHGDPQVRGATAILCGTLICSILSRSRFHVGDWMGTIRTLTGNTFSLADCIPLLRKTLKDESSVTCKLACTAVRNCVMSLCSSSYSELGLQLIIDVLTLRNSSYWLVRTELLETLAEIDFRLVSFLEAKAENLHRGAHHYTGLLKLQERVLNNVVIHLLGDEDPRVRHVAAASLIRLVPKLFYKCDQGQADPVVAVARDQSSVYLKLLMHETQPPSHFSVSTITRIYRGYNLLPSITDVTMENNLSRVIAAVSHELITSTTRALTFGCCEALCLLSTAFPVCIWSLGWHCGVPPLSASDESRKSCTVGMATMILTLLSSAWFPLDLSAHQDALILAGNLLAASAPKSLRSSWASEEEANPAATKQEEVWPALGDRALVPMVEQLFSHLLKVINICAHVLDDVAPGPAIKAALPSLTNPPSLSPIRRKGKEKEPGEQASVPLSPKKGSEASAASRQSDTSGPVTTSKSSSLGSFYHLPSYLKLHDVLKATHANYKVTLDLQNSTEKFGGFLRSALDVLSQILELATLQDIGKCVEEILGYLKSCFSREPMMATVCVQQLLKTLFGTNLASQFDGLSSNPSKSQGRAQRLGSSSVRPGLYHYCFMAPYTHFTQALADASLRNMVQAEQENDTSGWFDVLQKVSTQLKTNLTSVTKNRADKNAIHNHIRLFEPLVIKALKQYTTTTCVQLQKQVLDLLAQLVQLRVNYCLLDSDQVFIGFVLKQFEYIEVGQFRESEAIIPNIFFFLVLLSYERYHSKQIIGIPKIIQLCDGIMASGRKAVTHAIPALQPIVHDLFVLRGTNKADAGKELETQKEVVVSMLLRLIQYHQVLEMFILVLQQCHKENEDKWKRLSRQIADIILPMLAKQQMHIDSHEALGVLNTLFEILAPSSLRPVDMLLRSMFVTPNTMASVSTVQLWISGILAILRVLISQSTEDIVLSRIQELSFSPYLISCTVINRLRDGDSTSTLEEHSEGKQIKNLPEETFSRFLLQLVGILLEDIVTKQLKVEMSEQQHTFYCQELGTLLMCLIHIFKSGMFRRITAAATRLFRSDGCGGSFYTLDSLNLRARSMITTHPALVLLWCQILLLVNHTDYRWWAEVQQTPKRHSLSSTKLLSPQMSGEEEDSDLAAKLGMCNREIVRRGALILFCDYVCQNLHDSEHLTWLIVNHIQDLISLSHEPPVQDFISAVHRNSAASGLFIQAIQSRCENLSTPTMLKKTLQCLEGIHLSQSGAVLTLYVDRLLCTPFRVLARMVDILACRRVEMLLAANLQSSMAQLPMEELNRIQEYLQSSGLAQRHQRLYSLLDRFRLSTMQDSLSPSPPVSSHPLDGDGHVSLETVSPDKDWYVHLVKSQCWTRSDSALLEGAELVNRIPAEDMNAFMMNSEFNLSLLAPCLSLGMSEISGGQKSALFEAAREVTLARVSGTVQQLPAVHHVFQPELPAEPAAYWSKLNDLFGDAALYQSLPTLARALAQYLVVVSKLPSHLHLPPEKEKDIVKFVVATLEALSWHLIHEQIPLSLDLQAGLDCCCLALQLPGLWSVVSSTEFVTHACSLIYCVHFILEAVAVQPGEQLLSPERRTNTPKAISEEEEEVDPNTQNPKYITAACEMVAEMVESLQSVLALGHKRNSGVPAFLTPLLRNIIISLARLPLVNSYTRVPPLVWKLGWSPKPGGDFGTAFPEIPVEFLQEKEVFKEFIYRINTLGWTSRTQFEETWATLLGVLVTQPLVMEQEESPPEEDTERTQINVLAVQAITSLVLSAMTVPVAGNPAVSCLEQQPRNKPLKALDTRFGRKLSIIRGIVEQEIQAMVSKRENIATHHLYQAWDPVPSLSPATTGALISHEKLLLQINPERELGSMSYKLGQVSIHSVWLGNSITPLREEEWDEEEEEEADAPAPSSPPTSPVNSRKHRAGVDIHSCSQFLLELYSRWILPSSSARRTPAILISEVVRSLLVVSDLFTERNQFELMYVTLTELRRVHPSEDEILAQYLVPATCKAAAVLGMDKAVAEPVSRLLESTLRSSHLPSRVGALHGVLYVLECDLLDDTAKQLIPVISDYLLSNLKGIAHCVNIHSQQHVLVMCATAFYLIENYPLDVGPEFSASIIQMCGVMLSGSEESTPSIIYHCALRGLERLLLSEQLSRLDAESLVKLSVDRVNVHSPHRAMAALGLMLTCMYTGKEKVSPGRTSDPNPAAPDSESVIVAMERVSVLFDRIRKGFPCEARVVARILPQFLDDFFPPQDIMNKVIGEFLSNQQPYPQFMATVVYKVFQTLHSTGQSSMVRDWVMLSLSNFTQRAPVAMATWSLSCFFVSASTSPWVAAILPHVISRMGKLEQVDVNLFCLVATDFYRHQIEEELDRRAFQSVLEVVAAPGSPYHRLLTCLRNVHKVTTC

Cc1[nH]c2ccc(C(=O)NCCN(C(C)C)C(C)C)cc2c1C [Compound 22]
penetration of the blood brain area in vivo ([1]; male CD1 mice, 33.3 mg/kg body weight, 33.3 mg/kg): penetrates the blood brain area; also recorded: can penetrate the blood brain area in vivo
crossing of the blood brain barrier ([1]; mouse, in vivo): can cross the blood brain barrier
viability at 10 µM (STHdh 7/7 striatal cells): 34.9%
microsomal stability [2]: short
body weight versus vehicle treated R6/2 mice ([3]; 33 mg/kg i.p. QD from 4 to 12 weeks of age, pooled genders, females, males): no significant differences
body weight loss versus untreated female R6/2 mice ([3]; female R6/2 mice, week 12, 33 mg/kg i.p. QD): significantly improved
body weight loss improvement versus untreated male R6/2 mice ([3]; male R6/2 mice, week 12, 33 mg/kg i.p. QD): not observed
grip strength versus vehicle treated R6/2 mice [4]: no significant differences
pKd (Exon1 Q46 protein): 6.15
Slc32a1 expression upregulated (Slc32a1): 12 fold
Olig2 expression (Olig2): doubled
NGFR expression increased by (NGFR): 60%
Kcna1 expression increased by (KCNA1): 68%
microsomal stability in humans in comparison to mice [5]: 20 times
Nuclear diffuse mHTT reduced by (mHTT): 32%
